According to US8889712B2, “IAP antagonists” (Bristol-Myers Squibb Company, priority 2012, dated 2014):

Columns and labels:
XIAP BIR3 = target: T1, XIAP BIR3 (Homo sapiens, UniProt P98170); experiment: XIAP-BIR3/SMAC Homogeneous Time Resolved Fluorescence (HTRF) Assay; assay type: binding; details: 1 nM N-His-BIR3 (241-356, XIAP), 5 nM fluorescein labeled SMAC peptide; HTRF signal; read-out: XIAP BIR3 IC50
T1 construct: His-BIR3 (241-356, XIAP)
Experimental: A. XIAP-BIR3/SMAC Homogeneous Time Resolved Fluorescence (HTRF) Assay Assays were performed in black, flat-bottom, 384-well plates. […] The reaction was incubated at room temperature for 60 minutes, following which 10 μl of mouse anti-6×His-terbium labeled Fab (Medarex, Cis-bio) was added to the reaction (40 μl) for an additional 30 minute incubation. […] Compounds were dissolved at 3 mM in dimethylsulfoxide (DMSO) and evaluated at eleven serially diluted concentrations. IC50 and Ki values were derived by non-linear regression analysis.

XIAP BIR2-3 = target: T2, XIAP BIR2-3 (Homo sapiens, UniProt P98170, C202A/C213G); experiment: XIAP-BIR2-3 dimeric SMAC Peptide Homogeneous Time Resolved Fluorescence (HTRF) Assay; assay type: binding; details: 0.5 nM N-His-BIR2-3 (125-356, C202A/C213G, XIAP), 20 nM fluorescein labeled dimeric SMAC peptide; HTRF signal; read-out: XIAP BIR2-3 IC50
T2 construct: His-BIR2-3 (125-356, C202A/C213G, XIAP)
Experimental: B. […] Assays were performed in black, flat-bottom, 384-well plates. […] Compounds were dissolved at 3 mM in dimethylsulfoxide (DMSO) and evaluated at eleven serially diluted concentrations. IC50 and Ki values were derived by non-linear regression analysis.

T1 sequence (P98170 241-356): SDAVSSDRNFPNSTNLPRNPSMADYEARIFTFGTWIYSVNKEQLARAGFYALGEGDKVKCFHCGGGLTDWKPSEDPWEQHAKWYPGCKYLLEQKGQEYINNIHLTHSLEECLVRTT
T2 sequence (P98170 125-356 C202A/C213G): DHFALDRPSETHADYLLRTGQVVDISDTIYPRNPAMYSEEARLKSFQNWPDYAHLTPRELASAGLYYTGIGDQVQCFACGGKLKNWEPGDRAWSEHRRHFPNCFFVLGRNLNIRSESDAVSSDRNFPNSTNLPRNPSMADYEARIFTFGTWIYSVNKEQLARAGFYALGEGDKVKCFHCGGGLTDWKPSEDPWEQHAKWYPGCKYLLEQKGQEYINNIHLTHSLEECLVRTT

Compound | IC50 (XIAP BIR3) | IC50 (XIAP BIR2-3)
CN[C@@H](C)C(=O)N[C@H](C(=O)N1C[C@@H](c2ccc3c(c2)CN(C(=O)[C@@H](NC(=O)[C@H](C)NC)C(C)(C)C)[C@H](C(=O)N[C@@H]2CCCc4ccccc42)C3)C[C@H]1C(=O)N[C@@H](Cc1ccccc1)C(=O)NCCOC)C(C)(C)C [Example 61, (S)-2-((S)-3,3-Dimethyl-2-((S)-2-(methylamino)propanamido)butanoyl)-7-((3R,5S)-1-((S)-3,3-dimethyl-2-((S)-2-(methylamino)propanamido)butanoyl)-5-(((S)-1-((2-methoxyethyl)amino)-1-oxo-3-phenylpropan-2-yl)carbamoyl)pyrrolidin-3-yl)-N-((R)-1,2,3,4-tetrahydronaphthalen-1-yl)-1,2,3,4-tetrahydroisoquinoline-3-carboxamide] | 22.1 nM | 3.4 nM
CN[C@@H](C)C(=O)N[C@H](C(=O)N1CC(c2ccc3c(c2)CN(C(=O)[C@@H](NC(=O)[C@H](C)NC)C(C)(C)C)[C@H](C(=O)NC2CCCc4ccccc42)C3)C[C@H]1C(=O)NC(Cc1ccccc1)C(=O)Nc1ccc(F)cc1)C(C)(C)C (stereo in doubt) [Example 71, (S)-2-((S)-3,3-Dimethyl-2-((S)-2-(methylamino)propanamido)butanoyl)-7-((3S,5S)-1-((S)-3,3-dimethyl-2-((S)-2-(methylamino)propanamido)butanoyl)-5-(((S)-1-((4-fluorophenyl)amino)-1-oxo-3-phenylpropan-2-yl)carbamoyl)pyrrolidin-3-yl)-N-((R)-1,2,3,4-tetrahydronaphthalen-1-yl)-1,2,3,4-tetrahydroisoquinoline-3-carboxamide] | 5.6 nM | 1.5 nM
CN[C@@H](C)C(=O)N[C@H](C(=O)N1C[C@@H](c2ccc3c(c2)CN(C(=O)[C@@H](NC(=O)[C@H](C)NC)C(C)(C)SCC(=O)N(C)C)[C@H](C(=O)N[C@@H]2CCCc4ccccc42)C3)C[C@H]1C(=O)N[C@@H]1CCCc2ccccc21)C(C)(C)C [Example 30, (S)-7-((3R,5S)-1-((S)-3,3-Dimethyl-2-((S)-2-(methylamino)propanamido)butanoyl)-5-(((R)-1,2,3,4-tetrahydronaphthalen-1-yl)carbamoyl)pyrrolidin-3-yl)-2-((R)-3-((2-(dimethylamino)-2-oxoethyl)thio)-3-methyl-2-((S)-2-(methylamino)propanamido)butanoyl)-N-((R)-1,2,3,4-tetrahydronaphthalen-1-yl)-1,2,3,4-tetrahydroisoquinoline-3-carboxamide] | 3.9 nM | 5.7 nM
CN[C@@H](C)C(=O)N[C@H](C(=O)N1Cc2cc([C@H]3C[C@@H](C(=O)N[C@@H]4CCCc5ccccc54)N(C(=O)[C@@H](NC(=O)[C@H](C)NC)C(C)(C)C)C3)ccc2C[C@H]1C(=O)N[C@@H](Cc1ccccc1)C(=O)N1CCOCC1)C(C)(C)C [Example 43, (S)-2-((S)-3,3-Dimethyl-2-((S)-2-(methylamino)propanamido)butanoyl)-7-((3R,5S)-1-((S)-3,3-dimethyl-2-((S)-2-(methylamino)propanamido)butanoyl)-5-(((R)-1,2,3,4-tetrahydronaphthalen-1-yl)carbamoyl)pyrrolidin-3-yl)-N—((S)-1-morpholino-1-oxo-3-phenylpropan-2-yl)-1,2,3,4-tetrahydroisoquinoline-3-carboxamide] | 2 nM | 1.3 nM
CN[C@@H](C)C(=O)N[C@H](C(=O)N1C[C@@H](c2ccc3c(c2)CN(C(=O)[C@@H](NC(=O)[C@H](C)NC)C(C)(C)C)[C@H](C(=O)N[C@@H]2CCCc4ccccc42)C3)C[C@H]1C(=O)N[C@@H](Cc1ccccc1)C(=O)NCc1nccs1)C(C)(C)C [Example 67, (S)-2-((S)-3,3-Dimethyl-2-((S)-2-(methylamino)propanamido)butanoyl)-7-((3R,5S)-1-((S)-3,3-dimethyl-2-((S)-2-(methylamino)propanamido)butanoyl)-5-(((S)-1-oxo-3-phenyl-1-((thiazol-2-ylmethyl)amino)propan-2-yl)carbamoyl)pyrrolidin-3-yl)-N-((R)-1,2,3,4-tetrahydronaphthalen-1-yl)-1,2,3,4-tetrahydroisoquinoline-3-carboxamide] | 9.3 nM | 2.1 nM
CN[C@@H](C)C(=O)N[C@H](C(=O)N1Cc2cc([C@H]3C[C@@H](C(=O)N[C@@H]4CCCc5ccccc54)N(C(=O)[C@@H](NC(=O)[C@H](C)NC)C(C)(C)C)C3)ccc2C[C@H]1C(=O)N[C@H](COCCO)Cc1ccccc1)C(C)(C)C [Example 44, (S)-2-((S)-3,3-Dimethyl-2-((S)-2-(methylamino)propanamido)butanoyl)-7-((3R,5S)-1-((S)-3,3-dimethyl-2-((S)-2-(methylamino)propanamido)butanoyl)-5-(((R)-1,2,3,4-tetrahydronaphthalen-1-yl)carbamoyl)pyrrolidin-3-yl)-N—((S)-1-(2-hydroxyethoxy)-3-phenylpropan-2-yl)-1,2,3,4-tetrahydroisoquinoline-3-carboxamide] | 10.3 nM | 17.4 nM

Second part, the compound after the results:

IC50 (XIAP BIR3) | IC50 (XIAP BIR2-3) | Compound
1.6 nM | 1.2 nM | CN[C@@H](C)C(=O)N[C@H](C(=O)N1Cc2cc([C@H]3C[C@@H](C(=O)N[C@@H]4CCCc5ccccc54)N(C(=O)[C@@H](NC(=O)[C@H](C)NC)C(C)(C)C)C3)ccc2C[C@H]1C(=O)N[C@@H](Cc1ccccc1)C(=O)N(C)C)C(C)(C)C [Example 42, (S)-2-((S)-3,3-Dimethyl-2-((S)-2-(methylamino)propanamido)butanoyl)-7-((3R,5S)-1-((S)-3,3-dimethyl-2-((S)-2-(methylamino)propanamido)butanoyl)-5-(((R)-1,2,3,4-tetrahydronaphthalen-1-yl)carbamoyl)pyrrolidin-3-yl)-N—((S)-1-(dimethylamino)-1-oxo-3-phenylpropan-2-yl)-1,2,3,4-tetrahydroisoquinoline-3-carboxamide]
10.2 nM | 1.6 nM | CN[C@@H](C)C(=O)N[C@H](C(=O)N1C[C@@H](c2ccc3c(c2)CN(C(=O)[C@@H](NC(=O)[C@H](C)NC)C(C)(C)C)[C@H](C(=O)N[C@@H]2CCCc4ccccc42)C3)C[C@H]1C(=O)N[C@@H](Cc1ccccc1)C(N)=O)C(C)(C)C [Example 46, (S)-7-((3R,5S)-5-(((S)-1-Amino-1-oxo-3-phenylpropan-2-yl)carbamoyl)-1-((S)-3,3-dimethyl-2-((S)-2-(methylamino)propanamido)butanoyl)pyrrolidin-3-yl)-2-((S)-3,3-dimethyl-2-((S)-2-(methylamino)propanamido)butanoyl)-N—((R)-1,2,3,4-tetrahydronaphthalen-1-yl)-1,2,3,4-tetrahydroisoquinoline-3-carboxamide]
4 nM | 3 nM | CN[C@@H](C)C(=O)N[C@H](C(=O)N1Cc2cc([C@H]3C[C@@H](C(=O)N[C@@H]4CCCc5ccccc54)N(C(=O)[C@@H](NC(=O)[C@H](C)NC)C(C)(C)C)C3)ccc2C[C@H]1C(=O)N[C@H](C)c1ccccc1F)C(C)(C)C [Example 23, (S)-2-((S)-3,3-Dimethyl-2-((S)-2-(methylamino)propanamido)butanoyl)-7-((3R,5S)-1-((S)-3,3-dimethyl-2-((S)-2-(methylamino)propanamido)butanoyl)-5-(((R)-1,2,3,4-tetrahydronaphthalen-1-yl)carbamoyl)pyrrolidin-3-yl)-N—((R)-1-(2-fluorophenyl)ethyl)-1,2,3,4-tetrahydroisoquinoline-3-carboxamide]
9.2 nM | 4.2 nM | CN[C@@H](C)C(=O)N[C@H](C(=O)N1Cc2cc([C@H]3C[C@@H](C(=O)N[C@@H]4CCCc5ccccc54)N(C(=O)[C@@H](NC(=O)[C@H](C)NC)C(C)(C)C)C3)ccc2C[C@H]1C(=O)N[C@@H](Cc1ccccc1)c1noc(C)n1)C(C)(C)C [Example 45, (S)-2-((S)-3,3-Dimethyl-2-((S)-2-(methylamino)propanamido)butanoyl)-7-((3R,5S)-1-((S)-3,3-dimethyl-2-((S)-2-(methylamino)propanamido)butanoyl)-5-(((R)-1,2,3,4-tetrahydronaphthalen-1-yl)carbamoyl)pyrrolidin-3-yl)-N—((S)-1-(5-methyl-1,2,4-oxadiazol-3-yl)-2-phenylethyl)-1,2,3,4-tetrahydroisoquinoline-3-carboxamide]
4.8 nM | 7 nM | CN[C@@H](C)C(=O)N[C@H](C(=O)N1Cc2cc([C@H]3C[C@@H](C(=O)N[C@@H]4CCCc5ccccc54)N(C(=O)[C@@H](NC(=O)[C@H](C)NC)C(C)(C)C)C3)ccc2C[C@H]1C(=O)N[C@H](CO)Cc1ccccc1)C(C)(C)C [Example 34, (S)-2-((S)-3,3-Dimethyl-2-((S)-2-(methylamino)propanamido)butanoyl)-7-((3R,5S)-1-((S)-3,3-dimethyl-2-((S)-2-(methylamino)propanamido)butanoyl)-5-(((R)-1,2,3,4-tetrahydronaphthalen-1-yl)carbamoyl)pyrrolidin-3-yl)-N-((S)-1-hydroxy-3-phenylpropan-2-yl)-1,2,3,4-tetrahydroisoquinoline-3-carboxamide]
